Values joined by “and” are separate entries in the source; they are usually repeats but may differ in a detail not shown here. Equal values may be shown once. Toxic doses and inconclusive results are not listed. Rule for the calls: active = survival T/C of 150% or more; inactive = T/C below 125% in these data.
Tested on: P388 leukemia ip, CD2F1 mice, survival T/C
Assay: NCI In Vivo Anticancer Drug Screen. Data for tumor model P388 Leukemia (intraperitoneal) in CD2F1 (CDF1) mice
Conditions: endpoint: median survival time, higher = longer survival
In short: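 Mice carrying the transplanted tumor received test compound or vehicle. Survival was recorded in each group, and the value is the treated-group measurement divided by that of the vehicle-treated control group.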

[1] = dose: 100.0 mg/kg/injection, schedule: Q04DX003 (ip), vehicle: Klucel (hydroxypropylcellulose) (HPC)
[2] = dose: 200.0 mg/kg/injection, schedule: Q04DX003 (ip), vehicle: Klucel (hydroxypropylcellulose) (HPC)
[3] = dose: 400.0 mg/kg/injection, schedule: Q04DX003 (ip), vehicle: Klucel (hydroxypropylcellulose) (HPC)
[4] = dose: 12.5 mg/kg/injection, schedule: Q01DX009 (ip), vehicle: saline
[5] = dose: 25.0 mg/kg/injection, schedule: Q01DX009 (ip), vehicle: saline
[6] = dose: 50.0 mg/kg/injection, schedule: Q01DX009 (ip), vehicle: saline
[7] = dose: 50.0 mg/kg/injection, schedule: Q01DX005 (ip), vehicle: Klucel (hydroxypropylcellulose) (HPC)
[8] = dose: 100.0 mg/kg/injection, schedule: Q01DX005 (ip), vehicle: Klucel (hydroxypropylcellulose) (HPC)
[9] = dose: 200.0 mg/kg/injection, schedule: Q01DX005 (ip), vehicle: Klucel (hydroxypropylcellulose) (HPC)
[10] = dose: 50.0 mg/kg/injection, schedule: Q01DX009 (ip), vehicle: saline with Tween-80
[11] = dose: 100.0 mg/kg/injection, schedule: Q01DX009 (ip), vehicle: saline with Tween-80
[12] = dose: 100.0 mg/kg/injection, schedule: Q01DX009 (ip), vehicle: saline
[13] = dose: 200.0 mg/kg/injection, schedule: Q01DX009 (ip), vehicle: saline with Tween-80
[14] = dose: 200.0 mg/kg/injection, schedule: Q01DX009 (ip), vehicle: saline
[15] = dose: 100.0 mg/kg/injection, schedule: Q04DX002 (ip), vehicle: Klucel (hydroxypropylcellulose) (HPC)
[16] = dose: 200.0 mg/kg/injection, schedule: Q04DX002 (ip), vehicle: Klucel (hydroxypropylcellulose) (HPC)
[17] = dose: 400.0 mg/kg/injection, schedule: Q04DX002 (ip), vehicle: Klucel (hydroxypropylcellulose) (HPC)

Measured: T/C

c1ccc(SNSc2ccccc2)cc1
inactive: [1] 103 % of control | [2] 101 % of control | [3] 106 % of control

CC(C)[N+](C)(C)CC(O)COc1ccccc1-c1ccccc1 (stereo unspecified)
inactive: [4] 100 % of control | [5] 98 % of control | [6] 93 % of control and 97 % of control

CC1(C)OC(=O)C(=Cc2ccc(-c3cc(C(F)(F)F)cc(C(F)(F)F)c3)o2)C(=O)O1
inactive: [7] 104 % of control | [8] 100 % of control | [9] 92 % of control

COC(/C=N/OC(=O)c1ccccc1)c1ccccc1 (stereo unspecified)
inactive: dose: 25.0 mg/kg/injection, schedule: Q04DX003 (ip), vehicle: saline with Tween-80 98 % of control and 90 % of control | dose: 50.0 mg/kg/injection, schedule: Q04DX003 (ip), vehicle: saline with Tween-80 92 % of control

CCC1CN2CCc3cc(OC)c(OC)cc3C2CC1=O (stereo unspecified)
inactive: [4] 104 % of control | [5] 99 % of control | dose: 37.5 mg/kg/injection, schedule: Q04DX003 (ip), vehicle: saline with Tween-80 101 % of control | [10] 107 % of control | [6] 99 % of control and 103 % of control | dose: 75.0 mg/kg/injection, schedule: Q04DX003 (ip), vehicle: saline with Tween-80 121 % of control | [11] 112 % of control | [12] 96 % of control and 97 % of control | [13] 107 % of control | [14] 106 % of control

COc1ccc(C2=C(Cl)C(=O)N(c3ccccc3C)C(=O)C2(Cl)Cl)cc1
inactive: [15] 101 % of control | [16] 112 % of control | [17] 117 % of control

CN(C)C(=S)Nc1ccc(S(=O)(=O)N2CCCCC2)cc1
inactive: dose: 50.0 mg/kg/injection, schedule: Q01DX009 (ip), vehicle: Klucel (hydroxypropylcellulose) (HPC) 105 % of control | dose: 100.0 mg/kg/injection, schedule: Q01DX009 (ip), vehicle: Klucel (hydroxypropylcellulose) (HPC) 105 % of control | dose: 200.0 mg/kg/injection, schedule: Q01DX009 (ip), vehicle: Klucel (hydroxypropylcellulose) (HPC) 105 % of control | dose: 400.0 mg/kg/injection, schedule: Q01DX009 (ip), vehicle: Klucel (hydroxypropylcellulose) (HPC) 101 % of control

COc1cc2c(cc1OC)-c1[nH]ncc1CC2
inactive: [10] 101 % of control | [11] 101 % of control | [13] 106 % of control

Cc1ccc(NC(=O)C(C)C)cc1
inactive: [1] 100 % of control | [2] 101 % of control | [3] 109 % of control

COc1ccc(/C=C2\C=CC(=O)O2)cc1
inactive: dose: 100.0 mg/kg/injection, schedule: Q01DX002 (ip), vehicle: Klucel (hydroxypropylcellulose) (HPC) 104 % of control | dose: 200.0 mg/kg/injection, schedule: Q01DX002 (ip), vehicle: Klucel (hydroxypropylcellulose) (HPC) 103 % of control | dose: 400.0 mg/kg/injection, schedule: Q01DX002 (ip), vehicle: Klucel (hydroxypropylcellulose) (HPC) 105 % of control

CC(C)[C@](O)(C(=O)OCC1=CCN2CC[C@@H](O)[C@@H]12)[C@H](C)O
inactive: dose: 25.0 mg/kg/injection, schedule: Q01DX009 (ip), vehicle: water 105 % of control | dose: 50.0 mg/kg/injection, schedule: Q01DX009 (ip), vehicle: water 100 % of control and 104 % of control | dose: 100.0 mg/kg/injection, schedule: Q01DX009 (ip), vehicle: distilled water + Tween-80 103 % of control | [12] 97 % of control | dose: 100.0 mg/kg/injection, schedule: Q01DX009 (ip), vehicle: water 105 % of control and 107 % of control | dose: 200.0 mg/kg/injection, schedule: Q01DX009 (ip), vehicle: distilled water + Tween-80 112 % of control | [14] 114 % of control | dose: 200.0 mg/kg/injection, schedule: Q01DX009 (ip), vehicle: water 107 % of control and 113 % of control | dose: 400.0 mg/kg/injection, schedule: Q01DX009 (ip), vehicle: distilled water + Tween-80 113 % of control | dose: 400.0 mg/kg/injection, schedule: Q01DX009 (ip), vehicle: saline 112 % of control | dose: 800.0 mg/kg/injection, schedule: Q01DX009 (ip), vehicle: distilled water + Tween-80 103 % of control

Nc1ccc(NCCC2CCCN3CCCCC23)c2c(=O)c3ccccc3sc12 (stereo unspecified)
inactive: dose: 32.5 mg/kg/injection, schedule: Q01DX005 (ip), vehicle: saline with Tween-80 100 % of control | dose: 65.0 mg/kg/injection, schedule: Q01DX005 (ip), vehicle: saline with Tween-80 100 % of control | dose: 80.0 mg/kg/injection, schedule: Q01DX005 (ip), vehicle: saline with Tween-80 95 % of control | dose: 130.0 mg/kg/injection, schedule: Q01DX005 (ip), vehicle: saline with Tween-80 101 % of control | dose: 160.0 mg/kg/injection, schedule: Q01DX005 (ip), vehicle: saline with Tween-80 104 % of control | dose: 260.0 mg/kg/injection, schedule: Q01DX005 (ip), vehicle: saline with Tween-80 109 % of control

c1ccc(Cn2ccnc2CSCCSCc2nccn2Cc2ccccc2)cc1
inactive: dose: 30.0 mg/kg/injection, schedule: Q01DX005 (ip), vehicle: Klucel (hydroxypropylcellulose) (HPC) 101 % of control | dose: 60.0 mg/kg/injection, schedule: Q01DX005 (ip), vehicle: Klucel (hydroxypropylcellulose) (HPC) 99 % of control and 90 % of control | dose: 120.0 mg/kg/injection, schedule: Q01DX005 (ip), vehicle: Klucel (hydroxypropylcellulose) (HPC) 99 % of control and 105 % of control | dose: 240.0 mg/kg/injection, schedule: Q01DX005 (ip), vehicle: Klucel (hydroxypropylcellulose) (HPC) 97 % of control

COc1cc2c(cc1OC)C13CCN4C=C5CCOC6CC(=O)N2C1C6C5CC43 (stereo unspecified)
inactive: dose: 15.0 mg/kg/injection, schedule: Q01DX005 (ip), vehicle: saline 97 % of control | dose: 30.0 mg/kg/injection, schedule: Q01DX005 (ip), vehicle: saline 98 % of control | dose: 60.0 mg/kg/injection, schedule: Q01DX005 (ip), vehicle: saline 100 % of control and 103 % of control

CCn1c(=O)oc2ccc(Br)cc21
inactive: [15] 100 % of control | [16] 98 % of control | [17] 104 % of control

COc1ccc(C(C)(OC)c2cc(C(C)(C)C)c(O)c(C(C)(C)C)c2)cc1 (stereo unspecified)
inactive: dose: 50.0 mg/kg/injection, schedule: Q01DX005 (ip), vehicle: saline + Tween-80 + alcohol 104 % of control | dose: 100.0 mg/kg/injection, schedule: Q01DX005 (ip), vehicle: saline + Tween-80 + alcohol 101 % of control | dose: 200.0 mg/kg/injection, schedule: Q01DX005 (ip), vehicle: saline + Tween-80 + alcohol 102 % of control

CC(C)C1NC(=O)N(C2CCCCCC2)C1=O (stereo unspecified)
inactive: [7] 100 % of control | [8] 96 % of control | [9] 100 % of control

COc1ccc2c(c1)CCc1c-2nc(N)nc1-c1nc(N)nc2c1CCc1cc(OC)ccc1-2
inactive: dose: 60.0 mg/kg/injection, schedule: Q01DX005 (ip), vehicle: saline with Tween-80 100 % of control | dose: 120.0 mg/kg/injection, schedule: Q01DX005 (ip), vehicle: saline with Tween-80 100 % of control | dose: 240.0 mg/kg/injection, schedule: Q01DX005 (ip), vehicle: saline with Tween-80 100 % of control

C=C1C[C@]2(C)c3ccccc3NC(=O)[C@H]12
inactive: [7] 105 % of control | [8] 107 % of control | [9] 98 % of control

Reference: PubChem BioAssay AID330 (DTP/NCI, 2004)
